Marks after values point to notes of the source that are not given here.
How the values were obtained:
[1] = system: zebrafish; test: Arachidonic acid-induced thrombosis in zebrafish; format: in vivo; conditions: for Staining intensity of cardiac red blood cells (pixels) (mean ± se): 3 h pretreatment, arachidonic acid 1.5 h, n = 10; for Antithrombotic effect (%): vs. model group, arachidonic acid-induced thrombosis
Experimental: A total of 270 melanin allele mutant translucent albino strain zebrafish at 3 dpf were randomly selected, with 30 zebrafish per well in six-well plates. The concentrations of LS-102 were 6.25, 12.5, 25, 50, and 100 µg/ml, while that of AGS IV was 100 µg/ml, and the positive control drug aspirin was 25 µg/ml. After treatment with LS-102 and AGS IV for 3 h, arachidonic acid aqueous solution was administered for 1.5 h to induce a thrombosis model in zebrafish in all experimental groups except the normal group. After staining with o-anisidine, zebrafish were randomly selected from each experimental group and observed under a dissecting microscope and photographed. Data were collected to qualitatively evaluate thrombosis in zebrafish, and the intensity of cardiac erythrocyte staining (length of venous thrombus vs. number of cardiac erythrocytes) in zebrafish was analyzed and counted to establish, the preventive effect of LS-102 and AGS IV with aspirin on thrombosis in zebrafish. The formula was calculated as follows:
Thromboprophylactic effect (%) = S (drug administration group)−S (model group)/S (nomal control group)−S (model group)×100%

[2] = ref Xu et al., 2016; cited from earlier work
[3] = target: T1, HSA (Homo sapiens, UniProt P02768); test: Site marker competitive experiments (warfarin, ibuprofen) by equilibrium dialysis; format: in vitro ADME; conditions: drug 0.476 mg/ml, n = 3, read-out: Plasma protein binding (converted)
Experimental: The site marker competitive experiments were performed using two classical site probes, warfarin and ibuprofen, which were selected as the markers of subdomain IIA (site I) and subdomain IIIA (site II) separately of HAS ([Ghuman et al., 2005]). The procedure was consistent with the method described in section 2.5, except that the concentrations of AGS IV and LS-102 were both fixed at 0.476 mg/ml, while the external dialysis solution was changed to contain the probe with a final concentration of 0, 0.06, 0.3, 1.2 mg/ml PBS solution. Briefly, the AGS IV/LS-102 HSA mixture (0.5 ml drug and 0.5 ml HSA) was separately incubated with three different concentrations of probe to evaluate the effects of warfarin or ibuprofen on drug-protein binding influence. Three replicates of each concentration were prepared. After equilibrium dialysis, the internal and external dialysates were analyzed by UHPLC-MS/MS.

[4] = system: zebrafish embryos; test: Astemizole-induced cardiotoxicity in zebrafish embryos: heart rate and SV-BA spacing; format: in vivo; conditions: 4 µM astemizole; for Heart rate (beats/min) (Mean±SE) / SV-BA spacing (µm) (Mean±SE): 250 µg/ml, n = 10
Experimental: A total of 270 wild-type AB zebrafish at 3 dpf were randomly selected, and 30 zebrafish were plated in each well of a six-well plates. The concentrations of LS-102 were 27.8, 83.3 and 250 µg/ml, AGS IV was 250 µg/mL. A normal control group (fish culture water) and a 4 µM astemizole model control group were also established. Ten zebrafish were randomly selected from each group, and the heart rate and venous sinus-to-arterial bulb distance (SV-BA) of zebrafish were observed under a dissecting microscope after 2 h, 6 h and 24 h of LS-102 and AGS IV treatment. Images were collected by photographing, and the ameliorative effect of LS-102 and AGS IV on astemizole-induced cardiotoxicity in zebrafish was evaluated by the statistical significance of the heart rate and the SV-BA interval index.

[5] = system: zebrafish embryos; test: Astemizole-induced toxicity in zebrafish heart development; format: in vivo; conditions: 250 µg/mL, n=30
Experimental: A total of 270 wild-type AB zebrafish at 2 h post-fertilization (2 hpf) were randomly selected, and 30 zebrafish were plated in each well of a six-well plates. The concentrations of LS-102 were 27.8, 83.3 and 250 µg/ml, while that of AGS IV was 250 µg/mL. A normal control group (fish culture water) and a 4 µM astemizole model control group were also established. After LS-102 and AGS IV were cotreated with astemizole for 48 h, zebrafish heart development was observed and photographed under a microscope to evaluate the ameliorative effect of LS-102 and AGS IV on astemizole-induced toxicity in zebrafish heart development.

[6] = target: T1, HSA; test: Plasma protein binding rate by equilibrium dialysis and UHPLC-MS/MS; format: in vitro ADME; conditions: human, plasma, equilibrium dialysis 72 h at 4 °C, n = 3, read-out: Protein binding rate (%, Mean±SD) (converted)
Experimental: The binding rate of AGS IV/LS-102 and HSA was determined using a slightly modified equilibrium dialysis method ([Metsu et al., 2020]). […] The stock solutions of HSA (0.5 ml) and drug group (0.5 ml) were placed in a dialysis membrane bag that was ligated at both ends and then immersed in a test tube filled with 50 ml of PBS solution for 72 h at 4 °C. After equilibrium, a 0.5-ml solution of outer dialysate and internal dialysate was collected into a 2-ml EP tube, and 10 µL IS (digoxin, 0.1 mg/ml) solution was added to each tube. Both samples were added to 1.5 ml of acetonitrile and vortexed for 3 min, and then the samples were separated via centrifugation at 18,000 × g for 20 min. The supernatants were transferred to another EP tube and dried under a nitrogen stream. The residue was redissolved in 1 ml methanol, sonicated for 2 min, vortexed for 3 min, and centrifuged at 18,000 × g for 10 min. The supernatant was filtered with a 0.22 µm microporous syringe filter in a 2 ml sample vial, and 1 µL was injected into the UHPLC-MS/MS system for analysis. The plasma protein binding rate was calculated according to the following formula ([Talbert et al., 2002]): Plasma binding rate=Internal drug concentration−External drug concentration/Initial drug concentration ×100%

T1 sequence (P02768 25-609): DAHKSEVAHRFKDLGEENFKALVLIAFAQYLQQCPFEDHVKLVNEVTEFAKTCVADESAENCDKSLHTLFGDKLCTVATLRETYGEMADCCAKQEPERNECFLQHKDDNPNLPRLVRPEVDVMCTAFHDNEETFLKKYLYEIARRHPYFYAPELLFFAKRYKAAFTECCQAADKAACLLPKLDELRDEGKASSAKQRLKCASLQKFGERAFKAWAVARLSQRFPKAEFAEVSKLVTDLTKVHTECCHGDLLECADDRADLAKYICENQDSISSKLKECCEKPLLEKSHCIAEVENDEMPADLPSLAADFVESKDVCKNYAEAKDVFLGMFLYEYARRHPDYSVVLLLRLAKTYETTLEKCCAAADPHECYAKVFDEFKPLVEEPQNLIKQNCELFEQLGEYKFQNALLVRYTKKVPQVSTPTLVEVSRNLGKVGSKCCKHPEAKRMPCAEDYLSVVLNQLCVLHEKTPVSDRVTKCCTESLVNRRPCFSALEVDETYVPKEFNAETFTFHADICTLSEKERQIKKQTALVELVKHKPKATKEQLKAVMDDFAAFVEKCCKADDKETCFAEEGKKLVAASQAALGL

CC(=O)Oc1ccccc1C(=O)O [Aspirin, aspirin, reference compound]
Staining intensity of cardiac red blood cells (pixels) (mean ± se) ([1]; 25 µg/ml): 2036 ± 92 pixels | Staining intensity of cardiac red blood cells (pixels) (mean ± se) ([1]; 25 µg/ml, listed as aspirin): 2036 pixels | Antithrombotic effect (%) ([1]; 25 µg/ml): 70^*** % | Antithrombotic effect (%) ([1]; 25 µg/ml, listed as aspirin): 70%

CC(C)(O)C1CCC(C)(C2C(O)CC3(C)C4CC(OC5OC(CO)C(O)C(O)C5O)C5C(C)(C)C(OC6OCC(O)C(O)C6O)CCC56CC46CCC23C)O1 [AGS IV, 3-O-β-D-xylopyranosyl-6-O-β-D-glucopyranosyl-cycloastragenol, reference compound]
Degree of protein binding with human plasma [2]: up to 86.69% | fraction unbound at 72 h, 0.476 mg/ml ([3]; with ibuprofen 0.06 mg/ml): 0.0718 | fraction unbound at 72 h, 0.476 mg/ml ([3]; with ibuprofen 0.3 mg/ml): 0.0613 | fraction unbound at 72 h, 0.476 mg/ml ([3]; with ibuprofen 1.2 mg/ml): 0.0281 | fraction unbound at 72 h, 0.476 mg/ml ([3]; with warfarin 0.06 mg/ml): 0.051 | fraction unbound at 72 h, 0.476 mg/ml ([3]; with warfarin 0.3 mg/ml): 0.089 | fraction unbound at 72 h, 0.476 mg/ml ([3]; with warfarin 1.2 mg/ml): 0.0781 | fraction unbound at 72 h, 0.476 mg/ml ([3]; without site markers): 0.0333 | Heart rate (beats/min) (Mean±SE) ([4]; 2 h): 148 ± 1 beats/min | SV-BA spacing (µm) (Mean±SE) ([4]; 2 h): 210 ± 4 µm | Heart rate (beats/min) (Mean±SE) ([4]; 6 h): 146 ± 2 beats/min | SV-BA spacing (µm) (Mean±SE) ([4]; 6 h): 242 ± 7 µm | Heart rate (beats/min) (Mean±SE) ([4]; 24 h): 75 ± 25 beats/min | SV-BA spacing (µm) (Mean±SE) ([4]; 24 h): 241 ± 4 µm | Effect on astemizole-induced heart rate slowing and SV-BA spacing increase (in words) ([4]; 24 h): no significant changes | Phenotype: cardiac capsular oedema, lack of blood flow (share of zebrafish) ([5]; 4 µM astemizole, 48 h): 100% cardiac capsular oedema, lack of blood flow | Mortality ([5]; cotreated with 4 µM astemizole 48 h from 2 hpf): 3.3% | Staining intensity of cardiac red blood cells (pixels) (mean ± se) ([1]; 100 µg/ml): 1446 ± 54 pixels | Antithrombotic effect (%) ([1]; 100 µg/ml): 5% | fraction unbound at 72 h, 0.238 mg/ml ([6]; drug 0.238 mg/ml): 0.0538 | fraction unbound at 72 h, 0.476 mg/ml ([6]; drug 0.476 mg/ml): 0.0258 | fraction unbound at 72 h, 0.714 mg/ml ([6]; drug 0.714 mg/ml): 0.0594

From paper PMC9537572, “Elucidation of the binding mechanism of astragaloside IV derivative with human serum albumin and its cardiotoxicity in zebrafish embryos” (Frontiers in Pharmacology, 2022)
